In patent publication US20250074901A1, “NOVEL HETEROARYL COMPOUNDS” (ICAGEN, LLC, priority 2021, published 2025):

Biological target: T1, Kv7.2 (Homo sapiens, UniProt O43526)
T1 construct: expressed in transfected cells
Assay: Activation of Kv7.2 (in vitro assay, concentration response curve)
Assay type: cell-based
Settings: for Emax: Kv7.2 activation max %; for EC50: activation of Kv7.2
How it was run: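 EC50 is the half-maximal effective concentration, relative to the Emax observed for each compound in this in vitro assay. It was derived from concentration–response curves of the agonistic effect measured over a series of concentrations.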

| Emax [%] | EC50 [nM] | SMILES |
| --- | --- | --- |
| 62 | 180 | O=C(NCc1ccnc(OC(F)F)c1)NC1CCC(F)(F)CC1 [Example 90, 1-(4,4-difluorocyclohexyl)-3-[[2-(difluoromethoxy)pyridin-4-yl]methyl]urea] |
| 82 | 1260 | O=C(NC(CO)c1ccnc(OC(F)F)c1)N[C@H]1C[C@H](C(F)(F)F)C1 (stereo partly shown) [Example 91, 1-[1-[2-(difluoromethoxy)pyridin-4-yl]-2-hydroxyethyl]-3-[(1r,3r)-3-(trifluoromethyl)cyclobutyl]urea] |
| 56 | 450 | O=C(NCc1ccnc(OC(F)F)c1)NC1CCC(F)(F)C1 (stereo not shown) [Example 93, 1-(3,3-difluorocyclopentyl)-3-[[2-(difluoromethoxy)pyridin-4-yl]methyl]urea] |
| 48 | 810 | O=C(NCc1ccnc(OC(F)F)c1)Nc1cncc(Cl)n1 [Example 98, 1-(6-chloropyrazin-2-yl)-3-[[2-(difluoromethoxy)pyridin-4-yl]methyl]urea] |
| 40 | 3660 | O=C(NCc1ccnc(OC(F)F)c1)N[C@H]1C[C@](O)(C(F)(F)F)C1 [Example 100, 1-[[2-(difluoromethoxy)pyridin-4-yl]methyl]-3-[(1s,3s)-3-hydroxy-3-(trifluoromethyl)cyclobutyl]urea] |
| 71 | 30 | O=C(NCc1ccnc(OC(F)F)c1)N[C@H]1CC[C@@H]2CCC[C@@H]21 [Example 103, 1-[(1S,3aS,6aS)-1,2,3,3a,4,5,6,6a-octahydropentalen-1-yl]-3-[[2-(difluoromethoxy)pyridin-4-yl]methyl]urea] |
| 51 | 300 | CC(C)(C)CCNC(=O)NCc1ccnc(OC(F)F)c1 [Example 109, 1-[[2-(difluoromethoxy)pyridin-4-yl]methyl]-3-(3,3-dimethylbutyl)urea] |
| 40 | 1230 | O=C(NCc1ccnc(OC(F)F)c1)NC1(CC(F)(F)F)CC1 [Example 110, 1-[[2-(difluoromethoxy)pyridin-4-yl]methyl]-3-[1-(2,2,2-trifluoroethyl)cyclopropyl]urea] |
| 48 | 330 | O=C(NCc1ccnc(OC(F)F)c1)N[C@@H]1CCC(F)(F)C1 [Example 115, 1-[(1R)-3,3-difluorocyclopentyl]-3-[[2-(difluoromethoxy)pyridin-4-yl]methyl]urea] |
| 41 | 1600 | COC(CNC(=O)NCc1ccnc(OC(F)F)c1)C(F)(F)F (stereo not shown) [Example 119, 1-[[2-(difluoromethoxy)pyridin-4-yl]methyl]-3-(3,3,3-trifluoro-2-methoxypropyl)urea] |
| 50 | 650 | Cc1cccc(NC(=O)NCc2ccnc(OC(F)F)c2)c1 [Example 126, 1-[[2-(difluoromethoxy)pyridin-4-yl]methyl]-3-(3-methylphenyl)urea] |
| 43 | 550 | O=C(NCc1ccnc(OC(F)F)c1)N[C@H](C1CC1)C(F)(F)F [Example 134, 1-[(1R)-1-cyclopropyl-2,2,2-trifluoroethyl]-3-[[2-(difluoromethoxy)pyridin-4-yl]methyl]urea] |
| 68 | 1110 | O=C(NCc1ccnc(OC(F)F)c1)N[C@@H](C1CC1)C(F)(F)F [Example 135, 1-[(1S)-1-cyclopropyl-2,2,2-trifluoroethyl]-3-[[2-(difluoromethoxy)pyridin-4-yl]methyl]urea] |
| 50 | 280 | O=C(NCc1ccnc(OC(F)F)c1)N[C@H]1C[C@H](C(F)F)C1 [Example 136, 1-[[2-(difluoromethoxy)pyridin-4-yl]methyl]-3-[(1r,3r)-3-(difluoromethyl)cyclobutyl]urea] |
| 40 | 1030 | CC1(NC(=O)NCc2ccnc(OC(F)F)c2)CCC(F)(F)C1 (stereo not shown) [Example 142, 1-[[2-(difluoromethoxy)pyridin-4-yl]methyl]-3-(3,3-difluoro-1-methylcyclopentyl)urea] |
| 40 | 1050 | CC1(NC(=O)NCc2ccnc(OC(F)F)c2)CCC(F)(F)CC1 [Example 143, 1-[[2-(difluoromethoxy)pyridin-4-yl]methyl]-3-(4,4-difluoro-1-methylcyclohexyl)urea] |
| 48 | 220 | O=C(NCc1ccnc(OC(F)F)c1)N[C@H]1CC[C@@H](C(F)(F)F)C1 [Example 144, 1-[[2-(difluoromethoxy)pyridin-4-yl]methyl]-3-[(1S,3R)-3-(trifluoromethyl)cyclopentyl]urea] |

Second part, the molecule before the results:

| SMILES | Emax [%] | EC50 [nM] |
| --- | --- | --- |
| O=C(Nc1cccc(Cl)c1)NC(CO)c1ccnc(OCC(F)(F)F)c1 (stereo not shown) [Example 92, 1-(3-chlorophenyl)-3-[2-hydroxy-1-[2-(2,2,2-trifluoroethoxy)pyridin-4-yl]ethyl]urea] | 64 | 180 |
| CC(C)(C)C(O)CNC(=O)NCc1ccnc(OC(F)F)c1 (stereo not shown) [Example 95, 1-[[2-(difluoromethoxy)pyridin-4-yl]methyl]-3-(2-hydroxy-3,3-dimethylbutyl)urea] | 43 | 1160 |
| O=C(NCc1ccnc(OC(F)F)c1)Nc1nccc(Cl)n1 [Example 96, 1-(4-chloropyrimidin-2-yl)-3-[[2-(difluoromethoxy)pyridin-4-yl]methyl]urea] | 85 | 7220 |
| O=C(Nc1cccc(Cl)c1)NC(CO)c1ccnc(OC(F)F)c1 (stereo not shown) [Example 97, 1-(3-chlorophenyl)-3-[1-[2-(difluoromethoxy)pyridin-4-yl]-2-hydroxyethyl]urea] | 55 | 80 |
| O=C(NCc1ccnc(OC(F)F)c1)N[C@H]1C[C@H]2CCC[C@H]2C1 [Example 105] | 78 | 40 |
| O=C(NCc1ccnc(OC(F)F)c1)NC(C1CC1)C(F)(F)F (stereo not shown) [Example 106, 1-(1-cyclopropyl-2,2,2-trifluoroethyl)-3-[[2-(difluoromethoxy)pyridin-4-yl]methyl]urea] | 47 | 820 |
| O=C(NCc1ccnc(OC(F)F)c1)NC1CC(F)(F)C1 [Example 108, 1-(3,3-difluorocyclobutyl)-3-[[2-(difluoromethoxy)pyridin-4-yl]methyl]urea] | 51 | 2080 |
| O=C(NCc1ccnc(OC(F)F)c1)NC1CCCC1(F)F (stereo not shown) [Example 113, 1-(2,2-difluorocyclopentyl)-3-[[2-(difluoromethoxy)pyridin-4-yl]methyl]urea] | 77 | 3490 |
| O=C(NCc1ccnc(OC(F)F)c1)NN1CC2CCCC2C1 (stereo not shown) [Example 114, 1-(3,3a,4,5,6,6a-hexahydro-1H-cyclopenta[c]pyrrol-2-yl)-3-[[2-(difluoromethoxy)pyridin-4-yl]methyl]urea] | 68 | 7430 |
| O=C(NCc1ccnc(OC(F)F)c1)N[C@H]1CCC(F)(F)C1 [Example 116, 1-[(1S)-3,3-difluorocyclopentyl]-3-[[2-(difluoromethoxy)pyridin-4-yl]methyl]urea] | 58 | 320 |
| O=C(NC(CCO)c1ccnc(OC(F)F)c1)N[C@H]1C[C@H](C(F)(F)F)C1 (stereo partly shown) [Example 117, 1-[1-[2-(difluoromethoxy)pyridin-4-yl]-3-hydroxypropyl]-3-[(1r,3r)-3-(trifluoromethyl)cyclobutyl]urea] | 94 | 1900 |
| CC(F)(F)COc1cc(CNC(=O)N[C@H]2C[C@H](C(F)(F)F)C2)ccn1 [Example 121, 1-[[2-(2,2-difluoropropoxy)pyridin-4-yl]methyl]-3-[(1r,3r)-3-(trifluoromethyl)cyclobutyl]urea] | 62 | 120 |
| CC(F)(F)COc1cc(CNC(=O)NC23CCC(F)(CC2)CC3)ccn1 [Example 122, 1-[[2-(2,2-difluoropropoxy)pyridin-4-yl]methyl]-3-(4-fluoro-1-bicyclo[2.2.2]octanyl)urea] | 61 | 190 |
| [2H]C([2H])(NC(=O)NCc1ccnc(OC(F)F)c1)C1CCC1 [Example 125, 1-[cyclobutyl(dideuterio)methyl]-3-[[2-(difluoromethoxy)pyridin-4-yl]methyl]urea] | 62 | 750 |
| COc1cc(CNC(=O)N[C@H]2C[C@H](C(F)(F)F)C2)ccn1 [Example 128, 1-[(2-methoxypyridin-4-yl)methyl]-3-[(1r,3r)-3-(trifluoromethyl)cyclobutyl]urea] | 75 | 5360 |
| COc1cc(CNC(=O)NC23CCC(F)(CC2)CC3)ccn1 [Example 129, 1-(4-fluoro-1-bicyclo[2.2.2]octanyl)-3-[(2-methoxypyridin-4-yl)methyl]urea] | 53 | 4970 |
| O=C(NCc1ccnc(OC(F)F)c1)NC12CCC(CC1)CC2 [Example 131, 1-(1-bicyclo[2.2.2]octanyl)-3-[[2-(difluoromethoxy)pyridin-4-yl]methyl]urea] | 61 | 170 |
| O=C(NCc1ccnc(OC(F)F)c1)Nc1cccc(CF)c1 [Example 132, 1-[[2-(difluoromethoxy)pyridin-4-yl]methyl]-3-[3-(fluoromethyl)phenyl]urea] | 43 | 1070 |
| O=C(NCc1ccnc(OC(F)F)c1)N[C@@H]1CC[C@@H]2[C@H]1C2(F)F [Example 133, 1-[(1R,2R,5R)-6,6-difluoro-2-bicyclo[3.1.0]hexanyl]-3-[[2-(difluoromethoxy)pyridin-4-yl]methyl]urea] | 62 | 600 |
| O=C(NCc1ccnc(OC(F)F)c1)N[C@H]1C[C@@H](C(F)F)C1 [Example 137, 1-[[2-(difluoromethoxy)pyridin-4-yl]methyl]-3-[(1s,3s)-3-(difluoromethyl)cyclobutyl]urea] | 48 | 2410 |
| O=C(NCc1ccnc(OC(F)F)c1)N[C@H]1CCCC(F)(F)C1 [Example 140, 1-[(1S)-3,3-difluorocyclohexyl]-3-[[2-(difluoromethoxy)pyridin-4-yl]methyl]urea] | 42 | 100 |
